{"source": "patent US20230392126A1", "about": "“TISSUE ORGANOIDS” (priority 2016, published 2023)", "key": {"[1]": {"test_system": "epidermal progenitor cells", "assay": "Suicide gene-induced cell death in epidermal progenitor cells upon prodrug treatment", "format": "cell-based", "conditions": "ganciclovir and 5-fluorocytosine, respectively; data not shown", "source_text": "To test this possibility, a Rosa26 targeting vector encoding phenylalanine ammonia lyase (PAL) (SEQ ID NO: 51) together with inducible “suicide” genes HSV-TK (Herpes Simplex Virus Thymidine Kinase) (SEQ ID NO: 52) and yCD (yeast cytosine deaminase) (SEQ ID NO: 53) was used for epidermal progenitor cell transfection."}, "[2]": {"conditions": "i.p., mice; cited from earlier work"}, "[3]": {"test_system": "mouse epidermal stem cells", "assay": "Cell proliferation and differentiation of engineered mouse epidermal cells in vitro (cell cycle FACS, calcium shift western blot)", "format": "cell-based", "protocol": "Primary human neonatal epidermal keratinocytes were obtained from Thermo Fischer® (C0015C), and cultured with Epilife® medium (Thermo Fischer, M-EPICF-500) with manufacturer's recommended procedures. Calcium shift was performed to induce differentiation of primary keratinocytes by increasing the calcium concentration in culture media to 1.5 mM.\nPropidium iodide (PI) staining followed by flow cytometry were used to determine the effect of cell cycle profiles. Mouse and human epidermal cells were cultured in two 6 cm cell culture dish for 24 hours, respectively. Cells were trypsinized, and 1×10^5 cells from each dish were collected, followed by one PBS wash. […] After staining, the cells were analyzed immediately using flow cytometer BD FACSCanto™ II (BD Biosciences, San Jose, CA) with an excitation wavelength at 488 nm and emission at 585 nm. DNA content and histograms of cell cycle distribution were analyzed using FlowJo™ software, version 10 (FLOWJO LLC, OR).\nWestern blotting was performed as described previously (Blanpain et al.). […] Visualization and quantification was carried out with the LI-COR Odyssey® scanner and software (LI-COR Biosciences).\nPropidium iodide (PI) staining followed by flow cytometry were used to determine the effect of cell cycle profiles. […] DNA content and histograms of cell cycle distribution were analyzed using FlowJo™ software, version 10 (FLOWJO LLC, OR). […]"}, "[4]": {"assay": "Phenylalanine clearance by PAL-expressing mouse epidermal keratinocytes in vitro", "format": "cell-based", "source_text": "Therefore, using CRISPR-mediated genome editing with epidermal progenitor cell technology the possibility for treatment of PKU by cutaneous expression of PAL is investigated.\nA complete phenotypic change from brown hair coat to dark black fur is also expected. For tissue enzymatic analysis, PAL activity detection in grafted skin is expected but not in other tissues. PAH activity is absent in the liver of the mutant mice. Female mice are more resistant to PKU therapy. If this is the case for cutaneous gene therapy, female PAH mutant mice are tested to determine whether they require larger skin grafts or more grafts than male mice for correction of hyperphenylalaninemia."}, "[5]": {"assay": "PKU mouse model (PAH mutant, BTBR strain) grafted with PAL-expressing cells: plasma phenylalanine, fur color, tissue enzyme activity", "format": "in vivo", "conditions": "PAH mutant mice, ~2 mM plasma phenylalanine", "source_text": "The mouse model of PKU has been developed by ENU (N-ethyl-N-nitrosourea)-mediated mutagenesis in BTBR strain (Jax strain 002232).\nWith establishment of skin engraftment in PAH mutant mice, plasma phenylalanine level are monitored. Three weeks post skin grafting with PAL expressing cells or control cells (BTBR epidermal progenitor cells treated with control vectors), blood samples are collected from the tail clipping biweekly for up to 30 weeks. Plasma is separated by centrifugation. Phenylalanine concentration is determined by established fluorometric protocol. Lowering of phenylalanine level restores melanin biosynthesis, and leads to a change of fur color. Potential alteration in fur coat color is recorded weekly for all the grafted animals. […] Thus, two different cohorts of animals (male and female) are established to test the potential gender-dependent effect of cutaneous gene therapy in vivo.\nAt the endpoint of the experiment (30 weeks), grafted animals are euthanized and tissue samples (grafted skin, host skin, and liver) are collected. Presence of enzyme activity in the tissues is determined by PAH and PAL activity assay.\nA complete phenotypic change from brown hair coat to dark black fur is also expected. For tissue enzymatic analysis, PAL activity detection in grafted skin is expected but not in other tissues. PAH activity is absent in the liver of the mutant mice. […]"}, "[6]": {"conditions": "WT GGBP; read-out: glucose binding affinity (Kd); cited from earlier work"}, "GLP-1 receptor": {"biological_target": "T1, GLP-1 receptor (Mus musculus, UniProt O35659)", "T1 construct": "host or cells: living mice (endogenous receptor)", "T1 sequence (O35659 22-463)": "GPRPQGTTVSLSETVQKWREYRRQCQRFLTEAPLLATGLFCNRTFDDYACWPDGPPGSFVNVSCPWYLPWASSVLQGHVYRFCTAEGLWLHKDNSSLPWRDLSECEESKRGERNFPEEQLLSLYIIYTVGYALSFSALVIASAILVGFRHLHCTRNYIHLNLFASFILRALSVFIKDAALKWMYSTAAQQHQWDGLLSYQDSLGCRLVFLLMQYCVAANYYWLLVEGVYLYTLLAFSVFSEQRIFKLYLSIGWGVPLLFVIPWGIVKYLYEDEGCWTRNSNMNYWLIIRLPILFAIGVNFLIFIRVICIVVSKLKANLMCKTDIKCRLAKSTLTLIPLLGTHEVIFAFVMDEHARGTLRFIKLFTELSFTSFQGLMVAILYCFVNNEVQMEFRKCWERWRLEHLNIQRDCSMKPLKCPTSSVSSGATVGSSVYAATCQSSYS", "conditions": "mice; cited from earlier work"}, "[7]": {"assay": "Acute drug overdose test: cocaine-induced lethality", "format": "in vivo, mouse", "protocol": "For all behavioral experiments except where noted, C57BL/6J mice were used. Roughly equal numbers of adult male and female mice were group-housed until surgery. Mice were maintained under controlled temperature and humidity conditions on a 12 h:12 h light:dark cycle (lights on at 7:00). Water and food were available ad libitum. Mice weighed around 25-30 g at the beginning of the experiments. All procedures followed National Institutes of Health Guide for the Care and Use of Laboratory Animal and were approved by the University of Chicago Institutional Animal Care and Use Committee.\nDrug: Cocaine HCl and methamphetamine HCl (Sigma-Aldrich, Saint Louis, MO) were dissolved in sterile saline and delivered intraperitoneally at appropriates doses in a volume of 10 mL/kg. Ethanol (Sigma-Aldrich, Saint Louis, MO, 95%, density=0.816) was prepared in 20% (v/v) diluted in sterile saline and delivered intraperitoneally at appropriate doses. Vehicle (sterile saline) was intraperitoneally administered at 10 mL/kg as a control.\nAcute drug overdose test: Two weeks after grafting surgery, 4 groups of GhBChE and 4 groups of GWT mice (n=8 each in each group) received i.p. injections of cocaine at […]. As a control, 4 groups of GhBChE and 4 groups of GWT mice (n=8 each) received i.p. injections of methamphetamine (METH) at 34, 68 (LD50), 100, and 160 mg/kg. Two each of GhBChE and GWT mice with CD1 mice as hosts were also used to videotape acute cocaine (80 mg/kg) induced behaviors. Mice were monitored for 2 h following injection and percent of cocaine- and METH-induced lethality was calculated.\nTo first determine whether engrafting hBChE-expressing cells protects mice from acute systemic toxicity of cocaine, we delivered different doses of cocaine to grafted mice and calculated the lethality rates of cocaine. […] Parallel testing was conducted to test the toxicity of a related stimulant METH (methamphetamine) in GhBChE and GWT mice."}}}
{"compound": "HSV-TK: inducible suicide gene, Herpes Simplex Virus Thymidine Kinase (SEQ ID NO: 52), prodrug ganciclovir", "values": [{"measurement": "cell death upon prodrug treatment", "setting": "[1]", "result": "efficiently induced cell death upon treatment with prodrugs"}]}
{"compound": "CN[C@@H](C)Cc1ccccc1", "note": "[METH, methamphetamine]", "values": [{"measurement": "LD50", "setting": "[2]", "result": 68, "unit": "mg/kg"}]}
{"compound": "PAL: Phenylalanine ammonia-lyase (SEQ ID NO: 51) expressed in epidermal keratinocytes", "values": [{"measurement": "effect of expression on cell proliferation / differentiation in vitro", "setting": "[3]", "result": "does not significantly alter cell proliferation or differentiation in vitro"}, {"measurement": "degradation of phenylalanine in culture media compared with PAH", "setting": "[4]; lentivirus-infected mouse epidermal keratinocytes, preliminary", "result": "much faster than cells expressing PAH"}, {"measurement": "phenylalanine removal by grafts", "setting": "[4]; two 1 cm^2 epidermal grafts, ~2×10^7 metabolically active cells", "result": "57 pmol of phenylalanine per day"}, {"measurement": "effect on hyperphenylalaninemia", "setting": "[5]", "result": "sufficient for a complete reversal of hyperphenylalaninemia"}]}
{"compound": "WT (wild type) GGBP: wild type glucose/galactose-binding protein of E. coli periplasm", "values": [{"measurement": "Kd", "setting": "[6]", "result": 200, "unit": "nM"}]}
{"compound": "Exendin-4", "values": [{"measurement": "effect on nicotine-induced behaviours", "setting": "GLP-1 receptor", "result": "attenuates nicotine-induced locomotor stimulation, accumbal dopamine release, and the expression of conditioned place preference in mice"}]}
{"compound": "COC(=O)[C@H]1[C@@H](OC(=O)c2ccccc2)C[C@@H]2CC[C@H]1N2C", "note": "[cocaine]", "values": [{"measurement": "lethality", "setting": "[7]; 80 mg/kg i.p., control mice grafted with WT epidermal cells (GWT)", "result": "roughly 50%"}, {"measurement": "lethality", "setting": "[7]; 120 mg/kg i.p., GWT mice", "result": 100, "unit": "%"}, {"measurement": "lethality", "setting": "[7]; 160 mg/kg i.p., GWT mice", "result": 100, "unit": "%"}]}
